The values that follow come from patent US10280145B2 (Toray Industries, Inc., priority 2015, dated 2019).

The target in the test is T1, intracellular domain of DDR1 (Homo sapiens, UniProt Q08345).
T1 construct: the intracellular domain of DDR1 (in a final concentration of 5 ng/μL) (Carna Biosciences, Inc.); purchased Carna Biosciences, Inc
T1 sequence (Q08345 439-913 limits assumed): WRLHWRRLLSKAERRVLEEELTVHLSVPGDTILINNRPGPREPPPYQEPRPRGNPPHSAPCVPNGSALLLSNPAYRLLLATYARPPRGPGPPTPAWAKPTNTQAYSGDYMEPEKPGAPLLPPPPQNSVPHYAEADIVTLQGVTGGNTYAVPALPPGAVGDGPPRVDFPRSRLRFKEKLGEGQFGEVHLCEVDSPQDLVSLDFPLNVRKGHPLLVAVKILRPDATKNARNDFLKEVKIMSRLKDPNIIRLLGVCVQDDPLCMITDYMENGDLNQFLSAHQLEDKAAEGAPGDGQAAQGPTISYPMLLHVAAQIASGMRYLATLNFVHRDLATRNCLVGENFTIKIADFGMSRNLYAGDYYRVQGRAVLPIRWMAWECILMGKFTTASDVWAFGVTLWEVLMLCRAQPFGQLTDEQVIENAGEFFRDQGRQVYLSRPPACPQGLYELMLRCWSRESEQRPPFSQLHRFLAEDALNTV
Briefly: Evaluation of DDR1 inhibition activity with HTRF KinEASE-TK kit. Type of test: biochemical. As to conditions: DDR1 intracellular domain 5 ng/μL, ATP 25 μm/L, TK Substrate-biotin 1000 nmol/L, room temperature, one hour. As for the experimental part:
The DDR1 inhibition activity in the compounds of Examples 1 to 80 was evaluated with HTRF® KinEASE-TK kit (Cisbio Bioassays).
Each test substance was dissolved in dimethyl sulfoxide and then used for the evaluation as described below. Moreover, each of test substances and reagents was diluted in the kinase buffer (Cisbio Bioassays) prepared by adding thereto MgCl2, MnCl2, DTT, and the Supplemental Enzyme buffer (Cisbio Bioassays) to concentrations of 5 mmol/L, 0.5 mmol/L, 0.25 mmol/L, and 50 nmol/L, respectively, and then used. Each test substance (in DMSO in a final concentration of 1%), the intracellular domain of DDR1 (in a final concentration of 5 ng/μL) (Carna Biosciences, Inc.), the phosphate donor ATP (in final concentration of 25 μm/L) (Sigma), and the substrate TK Substrate-biotin (in a final concentration of 1000 nmol/L) (Cisbio Bioassays) were added to a 384-well black plate (Corning) and allowed to react at room temperature for one hour. After completion of the reaction, the TK Antibody-Cryptate (Cisbio Bioassays) and the Streptavidin-XL665 (Cisbio Bioassays) were added thereto and allowed to react at room temperature for one hour. In addition, the plate was provided with a well to which a test substance was not added, and with a well to which a test substance and the intracellular domain of DDR1 were […].
The fluorescence intensity in each well was measured using a multi-label counter (Envision, PerkinElmer; excitation wavelength: 320 nm, measurement wavelength: 665 nm and 620 nm) to calculate a ratio (the fluorescence intensity at 665 nm/the fluorescence intensity at 620 nm). The inhibition rate (%) of a test substance at each concentration was calculated based on the formula below: Inhibition rate (%)=([the ratio obtained from the well containing no test substance]−[the ratio from a well containing a test substance])/([the ratio obtained from the well containing no test substance]−[the ratio obtained from the well containing no intracellular domain of DDR1 and no test substance])×100.
The calculated inhibition rates were fitted to a sigmoidal dose-response curve by regression analysis using the Prism 5.04 (GraphPad Software, Inc.) to calculate the IC50 value of the test substance.
For “1-(2-(oxetan-3-yloxy)-5-(trifluoromethoxy)phenyl)-3-(trans-4-(pyridin-4-ylmethoxy)cyclohexyl)urea [Example 30]”, 50.4 nM corresponded to half-maximal inhibition (IC50).
The result for `COc1ccc(OC(F)(F)F)cc1NC(=O)N[C@H]1CC[C@H](Oc2ccnc(N3CCOCC3)n2)CC1` [Example 1, 1-(2-methoxy-5-(trifluoromethoxy)phenyl)-3-(trans-4-((2-morpholinopyrimidin-4-yl)oxy)cyclohexyl)urea] reads 476 nM; that for `COc1ccc(OC(F)(F)F)cc1NC(=O)N[C@H]1CC[C@H](Oc2ccncn2)CC1` [Example 2, 1-(2-methoxy-5-(trifluoromethoxy)phenyl)-3-(trans-4-(pyrimidin-4-yloxy)cyclohexyl)urea], 229 nM.
The result for `CNc1nccc(O[C@H]2CC[C@H](NC(=O)Nc3cc(OC(F)(F)F)ccc3OC)CC2)n1` [Example 3, 1-(2-methoxy-5-(trifluoromethoxy)phenyl)-3-(trans-4-((2-(methylamino)pyrimidin-4-yl)oxy)cyclohexyl)urea] reads 141 nM.
The figure for `COc1ccc(S(F)(F)(F)(F)F)cc1NC(=O)N[C@H]1CC[C@H](Oc2ccnc(N3CCOCC3)n2)CC1` [Example 4, 1-(2-methoxy-5-(pentafluorosulfanyl)phenyl)-3-(trans-4-((2-morpholinopyrimidin-4-yl)oxy)cyclohexyl)urea] is 427 nM.
`COc1c(CO)cc(S(F)(F)(F)(F)F)cc1NC(=O)N[C@H]1CC[C@H](Oc2ccnc(N3CCOCC3)n2)CC1` [Example 5, 1-(3-(hydroxymethyl)-2-methoxy-5-(pentafluorosulfanyl)phenyl)-3-(trans-4-((2-morpholinopyrimidin-4-yl)oxy)cyclohexyl)urea]: the midpoint of inhibition, the IC50, lay at 65.9 nM.
For the compound `COc1c(CO)cc(C(F)(F)F)cc1NC(=O)N[C@H]1CC[C@H](Oc2ccnc(N3CCOCC3)n2)CC1` [Example 6, 1-(3-(hydroxymethyl)-2-methoxy-5-(trifluoromethyl)phenyl)-3-(trans-4-((2-morpholinopyrimidin-4-yl)oxy)cyclohexyl)urea], the IC50 (in general, the point on the concentration scale where inhibition reaches its midpoint) stood at 62.2 nM.
The figure for `O=C(Nc1cc(C(F)(F)F)ccc1OC1COC1)N[C@H]1CC[C@H](Oc2ccnc(N3CCOCC3)n2)CC1` [Example 7, 1-(trans-4-((2-morpholinopyrimidin-4-yl)oxy)cyclohexyl)-3-(2-(oxetan-3-yloxy)-5-(trifluoromethyl)phenyl)urea] is 111 nM.
Compound `O=C1CN(c2ccc(C(F)(F)F)cc2NC(=O)N[C@H]2CC[C@H](Oc3ccnc(N4CCOCC4)n3)CC2)CCN1` [Example 8, 1-(trans-4-((2-morpholinopyrimidin-4-yl)oxy)cyclohexyl)-3-(2-(3-oxopiperazin-1-yl)-5-(trifluoromethyl)phenyl)urea] gave an IC50 of 46.3 nM.
The figure for `COc1ccc(OC(F)(F)F)cc1NC(=O)N[C@H]1CC[C@H](Oc2ncccn2)CC1` [Example 9, 1-(2-methoxy-5-(trifluoromethoxy)phenyl)-3-(trans-4-(pyrimidin-2-yloxy)cyclohexyl)urea] is 349 nM.
The figure for `COc1ccc(S(F)(F)(F)(F)F)cc1NC(=O)N[C@H]1CC[C@H](Oc2ncccn2)CC1` [Example 10, 1-(2-methoxy-5-(pentafluorosulfanyl)phenyl)-3-(trans-4-(pyrimidin-2-yloxy)cyclohexyl)urea] is 167 nM; for `COc1ccc(C(F)(F)F)cc1NC(=O)N[C@H]1CC[C@H](Oc2ncccn2)CC1` [Example 11, 1-(2-methoxy-5-(trifluoromethyl)phenyl)-3-(trans-4-(pyrimidin-2-yloxy)cyclohexyl)urea] it is 384 nM; for `COc1c(CO)cc(C(F)(F)F)cc1NC(=O)N[C@H]1CC[C@H](Oc2ncccn2)CC1` [Example 12, 1-(3-(hydroxymethyl)-2-methoxy-5-(trifluoromethyl)phenyl)-3-(trans-4-(pyrimidin-2-yloxy)cyclohexyl)urea] it is 96.7 nM.
The figure for `O=C(Nc1cc(C(F)(F)F)ccc1OC1COC1)N[C@H]1CC[C@H](Oc2ncccn2)CC1` [Example 13, 1-(2-(oxetan-3-yloxy)-5-(trifluoromethyl)phenyl)-3-(trans-4-(pyrimidin-2-yloxy)cyclohexyl)urea] is 57.6 nM; for `O=C(Nc1cc(S(F)(F)(F)(F)F)ccc1OC1COC1)N[C@H]1CC[C@H](Oc2ncccn2)CC1` [Example 14, 1-(2-(oxetan-3-yloxy)-5-(pentafluorosulfanyl)phenyl)-3-(trans-4-(pyrimidin-2-yloxy)cyclohexyl)urea] it is 76.7 nM.
For `O=C1CN(c2ccc(C(F)(F)F)cc2NC(=O)N[C@H]2CC[C@H](Oc3ncccn3)CC2)CCN1` [Example 15, 1-(2-(3-oxopiperazin-1-yl)-5-(trifluoromethyl)phenyl)-3-(trans-4-(pyrimidin-2-yloxy)cyclohexyl)urea], the IC50 was determined as 72.4 nM.
The result for `COc1ccc(OC(F)(F)F)cc1NC(=O)N[C@H]1CC[C@H](Oc2ccc(-c3ccccc3)nn2)CC1` [Example 16] reads 963 nM; that for `COc1c(CO)cc(C(F)(F)F)cc1NC(=O)N[C@H]1CC[C@H](Oc2ccc(-c3ccccc3)nn2)CC1` [Example 17, 1-(3-(hydroxymethyl)-2-methoxy-5-(trifluoromethyl)phenyl)-3-(4-((6-phenylpyridazin-3-yl)oxy)cyclohexyl)urea], 189 nM.
`COc1ccc(OC(F)(F)F)cc1NC(=O)N[C@H]1CC[C@H](Oc2cccnc2)CC1` [Example 18, 1-(2-methoxy-5-(trifluoromethoxy)phenyl)-3-(trans-4-(pyridin-3-yloxy)cyclohexyl)urea] had an IC50 of 162 nM.
The figure for `COc1ccc(OC(F)(F)F)cc1NC(=O)N[C@H]1CC[C@H](OCc2ccncc2)CC1` [Example 19, 1-(2-methoxy-5-(trifluoromethoxy)phenyl)-3-(trans-4-(pyridin-4-ylmethoxy)cyclohexyl)urea] is 46.2 nM; for `O=C(Nc1cc(CO)cc(C(F)(F)F)c1)N[C@H]1CC[C@H](OCc2ccncc2)CC1` [Example 20, 1-(3-(hydroxymethyl)-5-(trifluoromethyl)phenyl)-3-(trans-4-(pyridin-4-ylmethoxy)cyclohexyl)urea] it is 114 nM; for `COc1c(CO)cc(C(F)(F)F)cc1NC(=O)N[C@H]1CC[C@H](OCc2ccncc2)CC1` [Example 21, 1-(3-(hydroxymethyl)-2-methoxy-5-(trifluoromethyl)phenyl)-3-(trans-4-(pyridin-4-ylmethoxy)cyclohexyl)urea] it is 39.3 nM.
The result for `O=C(Nc1cccc(C(F)(F)F)c1)N[C@H]1CC[C@H](OCc2ccncc2)CC1` [Example 22, 1-(trans-4-(pyridin-4-ylmethoxy)cyclohexyl)-3-(3-(trifluoromethyl)phenyl)urea] reads 234 nM.
The result for `O=C(Nc1ccc(CO)c(C(F)(F)F)c1)N[C@H]1CC[C@H](OCc2ccncc2)CC1` [Example 23, 1-(4-(hydroxymethyl)-3-(trifluoromethyl)phenyl)-3-(trans-4-(pyridin-4-ylmethoxy)cyclohexyl)urea] reads 402 nM.
`COc1ccc(C(F)(F)F)cc1NC(=O)N[C@H]1CC[C@H](OCc2ccncc2)CC1` [Example 24, 1-(2-methoxy-5-(trifluoromethyl)phenyl)-3-(trans-4-(pyridin-4-ylmethoxy)cyclohexyl)urea]: the midpoint of inhibition, the IC50, lay at 124 nM. Against the preceding compound, the IC50 is about 3.2-fold lower.
